In PubChem BioAssay AID1259408 (Genetic Toxicology Data Bank (GENE-TOX), 2018):
The source made the active and inactive calls. No rule for the calls is given here.

Test system: GENE-TOX genotoxicity assays, various organisms and cells
Assay: GENE-TOX mutagenicity studies
[1] = Species/Cell Type: Chinese hamster lung (V79) cells, Assay Type: Forward gene mutation at the HPRT or ouabain locus, Assay Code: V79+, Evaluation Type: Evaluation A (Pre-1980)
[2] = Species/Cell Type: Human, Assay Type: Sister-chromatid exchange (SCE) in vitro, Assay Code: SC1+, Evaluation Type: Evaluation B (Post-1980)
[3] = Species/Cell Type: Salmonella typhimurium (one or more of the five standard strains: TA98, TA100, TA1535, TA1537, and TA1538), Assay Type: Histidine reverse gene mutation, Ames assay, Assay Code: SAL+, Evaluation Type: Evaluation A (Pre-1980)

In the case of `CCN(CCO)CCCNc1c2ccc(Cl)cc2nc2ccc(OC)nc12`, the mutagenic call (Species/Cell Type: Chinese hamster ovary (CHO) cells, Assay Type: Forward gene mutation at the HPRT locus, Assay Code: CHOT, Evaluation Type: Evaluation B (Post-1980)) is reported as “no conclusion”.
For `O=c1c(O)c(-c2ccc(O)cc2)oc2cc(O)cc(O)c12`, the mutagenic call (Species/Cell Type: Mammalian polychromatic erythrocytes, Assay Type: Micronucleus test, chromosome aberrations, Assay Code: MNT+, Evaluation Type: Evaluation B (Post-1980)) was “active; positive” and the mutagenic call (Species/Cell Type: Nonhuman, Assay Type: Sister-chromatid exchange (SCE) in vitro, Assay Code: SC2+D*, Activation: With metabolic activation, Dose Response: With dose response, Evaluation Type: Evaluation B (Post-1980)) was “active; positive”.
In the case of `C1CN1P1(N2CC2)=NP(N2CC2)(N2CC2)=NP(N2CC2)(N2CC2)=N1`, the mutagenic call (Species/Cell Type: Neurospora crassa, Assay Type: Forward gene mutation, Assay Code: NEF+, Evaluation Type: Evaluation A (Pre-1980)) is reported as “active; positive” and the mutagenic call (Species/Cell Type: Nonhuman, Assay Type: Sister-chromatid exchange (SCE) in vivo, Assay Code: SC3+, Evaluation Type: Evaluation B (Post-1980)) is reported as “active; positive”.
In the case of `[Cl][Sb]([Cl])([Cl])([Cl])[Cl]`, the mutagenic call (Species/Cell Type: Bacillus subtilis (H17 vs M45), Assay Type: Rec-assay, spot test, DNA effects (bacterial DNA repair), Assay Code: REW+, Evaluation Type: Evaluation A (Pre-1980)) is reported as “active; positive”.
`CC(=O)N(O)c1ccc2c(c1)Cc1ccccc1-2` was tested, and the mutagenic call [1] was “active; positive”, the mutagenic call (Species/Cell Type: Chinese hamster ovary (CHO) cells, Assay Type: Forward gene mutation at the HPRT locus, Assay Code: CHO+, Evaluation Type: Evaluation B (Post-1980)) was “active; positive” and the mutagenic call (Species/Cell Type: Drosophila melanogaster, Assay Type: Sex-linked recessive lethal gene mutation, Assay Code: SRLT, Evaluation Type: Evaluation A (Pre-1980)) was “no conclusion”. For the same molecule, the mutagenic call (Species/Cell Type: Escherichia coli polA (W3119 vs P3478), Assay Type: Rec-assay, DNA effects (bacterial DNA repair), Assay Code: RE1+, Evaluation Type: Evaluation A (Pre-1980)) was “active; positive”, the mutagenic call (Species/Cell Type: Fischer rat embryo (RLV/1706) cells, Assay Type: Cell transformation, viral enhanced, Assay Code: CTR+, Evaluation Type: Evaluation A (Pre-1980)) was “active; positive” and the mutagenic call (Species/Cell Type: Human diploid fibroblasts, Assay Type: Unscheduled DNA synthesis (UDS) in vitro, DNA effects, Assay Code: UDH+D, Dose Response: With dose response, Evaluation Type: Evaluation A (Pre-1980)) was “active; positive”. The mutagenic call (Species/Cell Type: Human lymphocytes, Assay Type: Sister-chromatid exchange (SCE) in vitro, Assay Code: SCLT, Evaluation Type: Evaluation A (Pre-1980)) was “no conclusion”, the mutagenic call [2] was “active; positive” and the mutagenic call (Species/Cell Type: Human, Assay Type: Sister-chromatid exchange (SCE) in vitro, Assay Code: SC1T, Evaluation Type: Evaluation A (Pre-1980)) was “no conclusion”. The mutagenic call (Species/Cell Type: Mouse (BALB/c-3T3) cells, Assay Type: Cell transformation, Assay Code: CTB+D, Dose Response: With dose response, Evaluation Type: Evaluation A (Pre-1980)) was “active; positive”, the mutagenic call (Species/Cell Type: Mouse embryo (AKR/ME) cells, Assay Type: Cell transformation, Assay Code: CTK-, Evaluation Type: Evaluation A (Pre-1980)) was “inactive; negative” and the mutagenic call (Species/Cell Type: Neurospora crassa, Assay Type: Reverse gene mutation, Assay Code: NER+, Evaluation Type: Evaluation A (Pre-1980)) was “active; positive”. For the same molecule, the call (Species/Cell Type: Nonhuman, Assay Type: In vivo carcinogenicity studies, Assay Code: CCG+, Evaluation Type: Evaluation A (Pre-1980)) was “active; positive”, the mutagenic call (Species/Cell Type: Nonhuman, Assay Type: Sister-chromatid exchange (SCE) in vitro, Assay Code: SC2+D, Dose Response: With dose response, Evaluation Type: Evaluation A (Pre-1980)) was “active; positive” and the mutagenic call (Species/Cell Type: Rat primary hepatocytes, Assay Type: Unscheduled DNA synthesis (UDS) in vitro, DNA effects, Assay Code: UDP+, Evaluation Type: Evaluation A (Pre-1980)) was “active; positive”. For the same molecule, the mutagenic call (Species/Cell Type: Saccharomyces cerevisiae, Assay Type: Mitotic recombination or gene conversion, Assay Code: YEC+, Evaluation Type: Evaluation A (Pre-1980)) was “active; positive”, the mutagenic call [3] was “active; positive” and the mutagenic call (Species/Cell Type: Syrian hamster embryo (SHE) cells, Assay Type: Cell transformation, clonal assay, Assay Code: CTC+D, Dose Response: With dose response, Evaluation Type: Evaluation A (Pre-1980)) was “active; positive”.
For `CSc1nc2c(c(=O)n(C)c(=O)n2C)n1C`, the mutagenic call (Species/Cell Type: Allium cepa, Assay Type: Chromosome aberrations, Assay Code: ALC+D, Dose Response: With dose response, Evaluation Type: Evaluation A (Pre-1980)) was “active; positive”.
`NC(=O)N/N=C(/CCN1CCCCC1)c1ccc([N+](=O)[O-])o1` was tested, and the mutagenic call (Species/Cell Type: Escherichia coli WP2, Assay Type: Tryptophan reverse gene mutation, Assay Code: WP2+, Evaluation Type: Evaluation A (Pre-1980)) was “active; positive” and the mutagenic call (Species/Cell Type: Escherichia coli WP2 UVRA, Assay Type: Tryptophan reverse gene mutation, Assay Code: WPU+, Evaluation Type: Evaluation A (Pre-1980)) was “active; positive”.
For `CN(N=O)C(=O)NC1O[C@H](CO)[C@@H](O)[C@H](O)[C@H]1O` (stereo partly drawn), the mutagenic call [1] was “active; positive”.
In the case of `CC1=C(/C=C/C(C)=C/C=C/C(C)=C/C=O)C(C)(C)CCC1`, the mutagenic call (Species/Cell Type: Nonhuman, Assay Type: Sister-chromatid exchange (SCE) in vitro, Assay Code: SC2T, Evaluation Type: Evaluation B (Post-1980)) is reported as “no conclusion”.
With `c1cc2c3c(c1)cc1ccc4cccc5cc(c3c1c45)CC2` the mutagenic call (Species/Cell Type: Salmonella typhimurium (one or more of the five standard strains: TA98, TA100, TA1535, TA1537, and TA1538), Assay Type: Histidine reverse gene mutation, Ames assay, Assay Code: SAL+*, Activation: With metabolic activation, Evaluation Type: Evaluation A (Pre-1980)) was “active; positive”.
In the case of `NC(=O)N1c2ccccc2[C@H](O)[C@@H](O)c2ccccc21`, the mutagenic call (Species/Cell Type: Human lymphocytes, Assay Type: Sister-chromatid exchange (SCE) in vitro, Assay Code: SCL+, Evaluation Type: Evaluation B (Post-1980)) is reported as “active; positive” and the mutagenic call [2] is reported as “active; positive”.
With `ClCc1c2ccccc2c(Cl)c2ccccc12` the mutagenic call [3] was “active; positive”.
